Data taken from ChEMBL document CHEMBL4699491, “Identification of TNO155, an Allosteric SHP2 Inhibitor for the Treatment of Cancer” (J Med Chem, 2020).
Converted amounts (≈) assume the structure as drawn.

Key:
[1] = system: NCI-H358; assay: Antiproliferative activity against human NCI-H358 cells; format: functional, cell-based
[2] = target: T1, Tyrosine-protein phosphatase non-receptor type 11 (Homo sapiens, UniProt Q06124); assay: Allosteric inhibition of 6x-histidine tagged human SHP2 (Met1-L525 residues) expressed in Escherichia coli BL21 Star (DE3) using IRS1_pY1172(dPEG8)[…] incubated for 30 mins by fluorescence based DIFMUP assay
T1 sequence (Q06124 whole entry): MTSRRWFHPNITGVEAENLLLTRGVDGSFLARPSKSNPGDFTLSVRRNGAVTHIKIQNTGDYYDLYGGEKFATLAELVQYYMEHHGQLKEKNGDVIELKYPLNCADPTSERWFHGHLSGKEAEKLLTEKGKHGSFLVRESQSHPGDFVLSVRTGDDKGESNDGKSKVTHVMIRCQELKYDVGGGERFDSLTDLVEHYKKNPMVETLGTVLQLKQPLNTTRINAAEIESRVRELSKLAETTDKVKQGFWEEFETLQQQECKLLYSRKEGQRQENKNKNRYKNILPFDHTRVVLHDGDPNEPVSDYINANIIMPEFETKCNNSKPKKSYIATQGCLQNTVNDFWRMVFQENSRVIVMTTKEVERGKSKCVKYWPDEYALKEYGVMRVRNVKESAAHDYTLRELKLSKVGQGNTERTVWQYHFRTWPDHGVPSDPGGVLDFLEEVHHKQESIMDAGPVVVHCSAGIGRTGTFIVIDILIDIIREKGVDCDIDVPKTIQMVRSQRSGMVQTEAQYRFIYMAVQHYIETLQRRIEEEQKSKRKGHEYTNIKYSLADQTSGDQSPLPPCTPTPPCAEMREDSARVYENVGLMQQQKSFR

[3] = target: Voltage-gated inwardly rectifying potassium channel KCNH2 (Homo sapiens, UniProt Q12809)
Description: Inhibition of human ERG by Q-patch assay

[4] = target: T1, Tyrosine-protein phosphatase non-receptor type 11
Description: Allosteric inhibition of human SHP2 in human KYSE-520 cells assessed as reduction in ERK1/2 phosphorylation by fluorescence based assay

[5] = physchem; conditions: octanol/water
Description: Lipophilicity, logP of the compound

[6] = physchem; conditions: octanol/water; remark: listed apart in the source
Description: Distribution coefficient, logD of the compound

[7] = physchem; conditions: aqueous, pH 6.8
Description: Aqueous solubility of the compound at pH 6.8

[8] = system: KYSE-520 cell line; assay: Antiproliferative activity against human KYSE-520 cells; format: functional, cell-based
[9] = Toxicity in mouse 3T3 cells under irradiation by NRU phototoxicity test; format: cell-based
[10] = octanol/water
Description: Lipophilicity, logP of the compound

[11] = target: T2, Tyrosine-protein phosphatase non-receptor type 11 (Homo sapiens) (UniProt Q06124); conditions: filed as negative allosteric modulator
T2 sequence (whole entry): T1 sequence (Q06124 whole entry)

[12] = system: MIA PaCa-2; assay: cells; conditions: Homo sapiens
Description: Antiproliferative activity against human MIA PaCa-2 cells

[13] = AUC/dose in beagle dog at 1 mg/kg, po by LC-MS/MS analysis; format: ADME, organism-based, Canis lupus familiaris; conditions: in vivo
[14] = target: Cytochrome P450 3A4 (Homo sapiens, UniProt P08684); assay: Inhibition of CYP3A4 (unknown origin); format: ADME
[15] = Volume of distribution at steady state in beagle dog at 0.2 mg/kg, iv by LC-MS/MS analysis; format: ADME, organism-based, Canis lupus familiaris; conditions: in vivo, read-out: Vdss
[16] = Volume of distribution at steady state in Sprague-Dawley rat at 1 mg/kg, iv by LC-MS/MS analysis; format: ADME, organism-based; conditions: in vivo, read-out: Vdss
[17] = Protein binding in Sprague-Dawley rat plasma; format: ADME, cell-free; conditions: read-out: PPB (converted)
[18] = Tmax in C57BL/6 mouse at 5 mg/kg, po by LC-MS/MS analysis; format: ADME, organism-based; conditions: in vivo
[19] = Volume of distribution at steady state in C57BL/6 mouse at 1 mg/kg, iv by LC-MS/MS analysis; format: ADME, organism-based; conditions: in vivo, read-out: Vdss
[20] = Cmax/dose in Sprague-Dawley rat at 5 mg/kg, po by LC-MS/MS analysis; format: ADME, organism-based; conditions: in vivo
[21] = Oral bioavailability in cynomolgus monkey at 1 mg/kg by LC-MS/MS analysis; format: ADME, organism-based, Macaca fascicularis; conditions: in vivo
[22] = AUC/dose in cynomolgus monkey at 0.3 mg/kg, iv by LC-MS/MS analysis; format: ADME, organism-based, Macaca fascicularis; conditions: in vivo
[23] = AUC/dose in Sprague-Dawley rat at 1 mg/kg, iv by LC-MS/MS analysis; format: ADME, organism-based; conditions: in vivo
[24] = Tmax in Sprague-Dawley rat at 5 mg/kg, po by LC-MS/MS analysis; format: ADME, organism-based; conditions: in vivo
[25] = Terminal half life in beagle dog at 0.2 mg/kg, iv by LC-MS/MS analysis; format: ADME, organism-based, Canis lupus familiaris; conditions: in vivo, read-out: beta t1/2 (converted)
[26] = Cmax/dose in C57BL/6 mouse at 5 mg/kg, po by LC-MS/MS analysis; format: ADME, organism-based; conditions: in vivo
[27] = Clearance in beagle dog at 0.2 mg/kg, iv by LC-MS/MS analysis; format: ADME, organism-based, Canis lupus familiaris; conditions: in vivo
[28] = Clearance in cynomolgus monkey at 0.3 mg/kg, iv by LC-MS/MS analysis; format: ADME, organism-based, Macaca fascicularis; conditions: in vivo
[29] = Oral bioavailability in beagle dog at 1 mg/kg by LC-MS/MS analysis; format: ADME, organism-based, Canis lupus familiaris; conditions: in vivo
[30] = target: Cytochrome P450 2D6 (Homo sapiens, UniProt P10635); assay: Inhibition of CYP2D6 (unknown origin); format: ADME
[31] = Volume of distribution at steady state in cynomolgus monkey at 0.3 mg/kg, iv by LC-MS/MS analysis; format: ADME, organism-based, Macaca fascicularis; conditions: in vivo, read-out: Vdss
[32] = Cmax/dose in beagle dog at 1 mg/kg, po by LC-MS/MS analysis; format: ADME, organism-based, Canis lupus familiaris; conditions: in vivo
[33] = Protein binding in cynomolgus monkey plasma; format: ADME, cell-free, Macaca fascicularis; conditions: read-out: PPB (converted)
[34] = target: Cytochrome P450 2C9 (Homo sapiens, UniProt P11712); assay: Inhibition of CYP2C9 (unknown origin); format: ADME
[35] = Terminal half life in cynomolgus monkey at 0.3 mg/kg, iv by LC-MS/MS analysis; format: ADME, organism-based, Macaca fascicularis; conditions: in vivo, read-out: beta t1/2 (converted)
[36] = Oral bioavailability in C57BL/6 mouse at 5 mg/kg by LC-MS/MS analysis; format: ADME, organism-based; conditions: in vivo
[37] = Tmax in cynomolgus monkey at 1 mg/kg, po by LC-MS/MS analysis; format: ADME, organism-based, Macaca fascicularis; conditions: in vivo
[38] = Terminal half life in Sprague-Dawley rat at 1 mg/kg, iv by LC-MS/MS analysis; format: ADME, organism-based; conditions: in vivo, read-out: beta t1/2 (converted)
[39] = Toxicity in NU/NU mouse xenografted with human KYSE-520 cells assessed as induction of body weight loss eat 2.5 to 20 mg/kg, po BID for 2 weeks; format: organism-based; conditions: in vivo, 336 h, dose 2.5-20 mg/kg
[40] = Protein binding in C57BL/6 mouse plasma; format: ADME, cell-free; conditions: read-out: PPB (converted)
[41] = Cmax/dose in cynomolgus monkey at 1 mg/kg, po by LC-MS/MS analysis; format: ADME, organism-based, Macaca fascicularis; conditions: in vivo
[42] = AUC/dose in beagle dog at 0.2 mg/kg, iv by LC-MS/MS analysis; format: ADME, organism-based, Canis lupus familiaris; conditions: in vivo
[43] = Clearance in Sprague-Dawley rat at 1 mg/kg, iv by LC-MS/MS analysis; format: ADME, organism-based; conditions: in vivo
[44] = AUC/dose in C57BL/6 mouse at 1 mg/kg, iv by LC-MS/MS analysis; format: ADME, organism-based; conditions: in vivo
[45] = AUC/dose in C57BL/6 mouse at 5 mg/kg, po by LC-MS/MS analysis; format: ADME, organism-based; conditions: in vivo
[46] = Terminal half life in C57BL/6 mouse at 1 mg/kg, iv by LC-MS/MS analysis; format: ADME, organism-based; conditions: in vivo, read-out: beta t1/2 (converted)
[47] = Protein binding in beagle dog plasma; format: ADME, cell-free, Canis lupus familiaris; conditions: read-out: PPB (converted)
[48] = AUC/dose in cynomolgus monkey at 1 mg/kg, po by LC-MS/MS analysis; format: ADME, organism-based, Macaca fascicularis; conditions: in vivo
[49] = AUC/dose in Sprague-Dawley rat at 5 mg/kg, po by LC-MS/MS analysis; format: ADME, organism-based; conditions: in vivo
[50] = Tmax in beagle dog at 1 mg/kg, po by LC-MS/MS analysis; format: ADME, organism-based, Canis lupus familiaris; conditions: in vivo
[51] = Oral bioavailability in Sprague-Dawley rat at 5 mg/kg by LC-MS/MS analysis; format: ADME, organism-based; conditions: in vivo

Voltage-gated inwardly rectifying potassium channel KCNH2, sequence (Q12809 whole entry): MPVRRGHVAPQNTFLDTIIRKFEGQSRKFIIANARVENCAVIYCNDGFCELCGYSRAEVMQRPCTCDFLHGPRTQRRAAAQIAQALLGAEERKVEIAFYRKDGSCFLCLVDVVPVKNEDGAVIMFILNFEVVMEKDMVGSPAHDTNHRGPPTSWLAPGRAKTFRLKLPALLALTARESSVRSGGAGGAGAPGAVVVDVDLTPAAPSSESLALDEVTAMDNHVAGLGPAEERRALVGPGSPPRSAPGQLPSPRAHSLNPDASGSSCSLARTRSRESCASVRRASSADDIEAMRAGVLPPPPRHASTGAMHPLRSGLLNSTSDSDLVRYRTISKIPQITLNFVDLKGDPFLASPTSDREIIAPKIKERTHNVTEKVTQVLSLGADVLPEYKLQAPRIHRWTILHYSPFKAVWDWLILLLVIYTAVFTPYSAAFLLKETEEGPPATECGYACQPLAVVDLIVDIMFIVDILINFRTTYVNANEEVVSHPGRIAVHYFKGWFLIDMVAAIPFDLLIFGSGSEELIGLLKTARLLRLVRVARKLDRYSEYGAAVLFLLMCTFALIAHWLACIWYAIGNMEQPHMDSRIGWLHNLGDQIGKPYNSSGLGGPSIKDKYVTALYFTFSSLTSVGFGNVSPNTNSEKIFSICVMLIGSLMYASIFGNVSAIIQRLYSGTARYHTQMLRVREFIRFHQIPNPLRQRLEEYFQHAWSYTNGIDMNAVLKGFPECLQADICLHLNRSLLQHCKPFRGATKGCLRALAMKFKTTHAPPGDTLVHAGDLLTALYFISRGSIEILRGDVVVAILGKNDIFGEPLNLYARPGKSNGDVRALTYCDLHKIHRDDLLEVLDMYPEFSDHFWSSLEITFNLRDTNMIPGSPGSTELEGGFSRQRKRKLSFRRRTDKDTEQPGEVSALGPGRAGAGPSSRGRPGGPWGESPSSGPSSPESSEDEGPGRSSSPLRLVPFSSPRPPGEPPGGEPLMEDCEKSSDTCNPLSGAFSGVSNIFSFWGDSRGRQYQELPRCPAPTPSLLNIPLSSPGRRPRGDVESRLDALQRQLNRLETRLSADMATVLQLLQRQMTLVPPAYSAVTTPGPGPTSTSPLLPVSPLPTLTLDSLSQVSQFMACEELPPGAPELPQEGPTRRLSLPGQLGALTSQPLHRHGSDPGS
Cytochrome P450 2D6, sequence (P10635 whole entry): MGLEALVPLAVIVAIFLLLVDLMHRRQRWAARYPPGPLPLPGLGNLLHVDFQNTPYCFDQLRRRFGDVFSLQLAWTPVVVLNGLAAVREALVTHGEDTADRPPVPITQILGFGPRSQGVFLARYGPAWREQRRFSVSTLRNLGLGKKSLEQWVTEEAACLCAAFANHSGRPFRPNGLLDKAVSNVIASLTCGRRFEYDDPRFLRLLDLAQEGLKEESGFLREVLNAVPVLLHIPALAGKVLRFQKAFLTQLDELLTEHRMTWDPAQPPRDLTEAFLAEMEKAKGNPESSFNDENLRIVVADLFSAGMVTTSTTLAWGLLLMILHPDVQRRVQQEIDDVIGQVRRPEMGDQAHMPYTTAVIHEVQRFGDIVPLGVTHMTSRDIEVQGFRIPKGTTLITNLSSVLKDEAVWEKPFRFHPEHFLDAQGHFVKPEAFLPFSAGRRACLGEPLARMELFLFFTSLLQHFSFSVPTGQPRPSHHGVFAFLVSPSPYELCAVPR
Cytochrome P450 2C9, sequence (P11712 whole entry): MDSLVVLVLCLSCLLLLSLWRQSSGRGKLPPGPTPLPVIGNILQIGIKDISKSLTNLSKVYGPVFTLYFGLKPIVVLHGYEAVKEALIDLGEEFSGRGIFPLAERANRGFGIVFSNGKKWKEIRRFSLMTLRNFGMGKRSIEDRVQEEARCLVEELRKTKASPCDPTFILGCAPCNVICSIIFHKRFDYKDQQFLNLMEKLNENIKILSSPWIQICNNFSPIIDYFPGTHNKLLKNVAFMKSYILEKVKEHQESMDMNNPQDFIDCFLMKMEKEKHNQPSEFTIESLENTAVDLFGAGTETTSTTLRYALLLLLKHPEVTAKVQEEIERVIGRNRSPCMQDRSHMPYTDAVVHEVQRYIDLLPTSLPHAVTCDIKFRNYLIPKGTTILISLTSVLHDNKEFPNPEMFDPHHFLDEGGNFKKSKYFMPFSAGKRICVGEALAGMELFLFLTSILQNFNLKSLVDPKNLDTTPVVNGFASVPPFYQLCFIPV
Cytochrome P450 3A4, sequence (P08684 whole entry): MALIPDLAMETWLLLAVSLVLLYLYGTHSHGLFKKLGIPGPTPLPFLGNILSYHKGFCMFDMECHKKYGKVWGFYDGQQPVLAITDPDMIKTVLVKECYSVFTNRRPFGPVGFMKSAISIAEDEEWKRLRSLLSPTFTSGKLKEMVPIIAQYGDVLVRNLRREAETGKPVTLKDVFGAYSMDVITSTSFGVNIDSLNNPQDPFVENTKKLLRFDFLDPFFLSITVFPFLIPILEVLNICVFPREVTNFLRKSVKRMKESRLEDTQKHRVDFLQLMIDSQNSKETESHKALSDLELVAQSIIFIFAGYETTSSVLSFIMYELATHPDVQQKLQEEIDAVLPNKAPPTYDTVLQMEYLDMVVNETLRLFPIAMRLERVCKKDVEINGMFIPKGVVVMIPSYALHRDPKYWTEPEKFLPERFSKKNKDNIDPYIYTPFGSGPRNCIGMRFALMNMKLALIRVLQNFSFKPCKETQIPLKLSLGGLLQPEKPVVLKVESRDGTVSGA

## C=CC(=O)N1CCN(c2nc(=O)n(-c3c(C)ccnc3C(C)C)c3nc(-c4c(O)cccc4F)c(F)cc23)[C@@H](C)C1 [SOTORASIB]
[1]
  IC50: < 30 nM

## CC1(N)CCN(c2cnc(Sc3cccnc3C(F)(F)F)c(N)n2)CC1
[2]
  IC50: 67 nM
[3]
  IC50: 17400 nM
[4]
  IC50: 339 nM
[5]
  logP: 2
[6]
  logD: -0.5
[7]
  solubility: 85 µM (≈ 32.7 µg/mL)

## CC(=O)Nc1cccc(-n2c(=O)n(C3CC3)c(=O)c3c(Nc4ccc(I)cc4F)n(C)c(=O)c(C)c32)c1 [TRAMETINIB]
[8]; Homo sapiens, KYSE-520
  IC50: 10 nM

## CC1(N)CCN(c2cnc(-c3cccc(Cl)c3Cl)c(N)n2)CC1
[9]
  IC50: 4500 nM
[10]
  logP: 2.6
[8]; Homo sapiens, KYSE-520
  IC50: 2500 nM
[11]
  ΔTm: 7.5 °C
[6]
  logD: 0.92
[7]
  solubility: 290 µM (≈ 102 µg/mL)

## CC1(N)CCN(c2cnc(Cc3cccc(Cl)c3Cl)c(N)n2)CC1
[2]
  IC50: 9900 nM

## C=C(F)C(=O)N1CCN(c2nc(OC[C@@H]3CCCN3C)nc3c2CCN(c2cccc4cccc(Cl)c24)C3)C[C@@H]1CC#N [ADAGRASIB]
[12]
  IC50: 100 nM

## Nc1nc(N2CCC3(CC2)COC[C@H]3N)cnc1Sc1ccnc(N)c1Cl
[3]
  IC50: > 25000 nM
[8]; Homo sapiens, KYSE-520
  IC50: 665 nM
[4]
  IC50: 99 nM
[5]
  logP: 1.1
[6]
  logD: 0.2
[7]
  solubility: 787 µM (≈ 321 µg/mL)

## C[C@@H]1OCC2(CCN(c3cnc(Sc4ccnc(N)c4Cl)c(N)n3)CC2)[C@@H]1N [BATOPROTAFIB]
[13]
  AUC/dose: 15854 nM·h
[14]
  inhibition (INH): Not Active
[15]
  Vd: 3 L/kg
[16]
  Vd: 7 L/kg
[17]
  fraction unbound: 0.19
[18]
  Tmax: 0.8 h
[19]
  Vd: 3 L/kg
[20]
  Cmax/dose: 657 nM
[21]
  bioavailability: 60%
[22]
  AUC/dose: 6438 nM·h
[23]
  AUC/dose: 2407 nM·h
[24]
  Tmax: 1 h
[25]
  half-life: 9 h
[26]
  Cmax/dose: 357 nM
[9]
  IC50: 666000 nM
[27]
  clearance: 4 mL/min/kg
[28]
  clearance: 6 mL/min/kg
[29]
  bioavailability: > 100%
[30]
  inhibition (INH): Not Active
[31]
  Vd: 4 L/kg
[32]
  Cmax/dose: 1207 nM
[3]
  IC50: > 30000 nM
[33]
  fraction unbound: 0.39
[34]
  inhibition (INH): Not Active
[35]
  half-life: 9 h
[36]
  bioavailability: 78%
[8]; kyse-520
  IC50: 100 nM
[37]
  Tmax: 2 h
[38]
  half-life: 8 h
[39]
  Activity: Non-Toxic
[40]
  fraction unbound: 0.24
[41]
  Cmax/dose: 286 nM
[42]
  AUC/dose: 10690 nM·h
[43]
  clearance: 15 mL/min/kg
[5]
  logP: 1.6
[44]
  AUC/dose: 1530 nM·h
[45]
  AUC/dose: 1190 nM·h
[46]
  half-life: 2 h
[6]
  logD: 0.6
[47]
  fraction unbound: 0.36
[48]
  AUC/dose: 3848 nM·h
[49]
  AUC/dose: 2483 nM·h
[7]
  solubility: 736 µM (≈ 311 µg/mL)
[50]
  Tmax: 2 h
[51]
  bioavailability: 100%

## CC1(CN)CCN(c2cnc(Sc3cccc(Cl)c3Cl)c(N)n2)CC1
[2]
  IC50: 17 nM
[3]
  IC50: 2400 nM
[8]; kyse-520
  IC50: 2670 nM
[4]
  IC50: 88 nM
[5]
  logP: 4.3
[6]
  logD: 2.5
[7]
  solubility: 109 µM (≈ 43.4 µg/mL)

## Nc1nccc(Sc2cnc(N3CCC4(CCC[C@H]4N)CC3)cn2)c1Cl
[8]; Homo sapiens, KYSE-520
  IC50: 87 nM

## Nc1nc(N2CCC3(CCC[C@H]3N)CC2)cnc1Sc1cccnc1C(F)(F)F
[8]; Homo sapiens, KYSE-520
  IC50: 1160 nM
